Results taken from paper PMC11844072, “Novel 5,6-dichlorobenzimidazole derivatives as dual BRAFWT and BRAFV600E inhibitors: design, synthesis, anti-cancer activity and molecular dynamics simulations” (BMC Chemistry, 2025).

Experiments:
Test in all cases: NCI 60 single concentration growth inhibition
Type in all cases: cell-based, human
[1] = test system: SK-MEL-2; conditions: SK-MEL-2, Melanoma, 10 μM
Procedure: (§1) The synthesized dichlorobenzimidazoles 10a–p were assayed for their influence on divers cancer cell lines according to the method presented in the Additional file A.
(§2) 5. Screening of cytotoxic activity against a panel of sixty human tumor cell lines
(§3) The selected compounds by NCI were evaluated for their anticancer activity in a two-stage process. First, these compounds were screened against the full NCI 60 cell lines panel at a single high dose of 10 µM. Then, the output from the single dose screen is reported as a mean graph. […]
(§4) at five different minimal concentrations.
(§5) Assay protocol. The human tumor cell lines of the cancer screening panel are grown in RPMI 1640 medium containing 5% fetal bovine serum and 2 mM L-glutamine. For a typical screening experiment, cells are inoculated into 96 well microtiter plates in 100 µL at plating densities ranging from 5000 to 40,000 cells/well depending on the doubling time of individual cell lines. After cell inoculation, the microtiter plates are incubated at 37 °C, 5% CO 2, 95% air and 100% relative humidity for 24 h prior to addition of the experimental drugs.
(§6) After 24 h, two plates of each cell line are fixed in situ with TCA, to represent a measurement of the cell population for each cell line at the time of drug addition (Tz). The experimental drugs are solubilized in dimethyl sulfoxide at 400-fold the desired final maximum test concentration and stored frozen prior to use. At the time of drug addition, an aliquot of frozen concentrate is thawed and diluted to twice the desired final maximum test concentration with complete medium containing 50 µg/mL gentamicin. Additional four, 10-fold or ½ log serial dilutions are made to provide a total of five drug concentrations plus control.
(§7) Aliquots of […] of these different drug dilutions are added to the appropriate microtiter wells already containing […] of medium, resulting in the required final drug concentrations.
(§8) Following drug addition, the plates are incubated for an additional 48 h at 37 °C, 5% CO 2, 95% air, and 100% relative humidity. For adherent cells, the assay is terminated by the addition of cold TCA.
(§9) Cells are fixed in situ by the gentle addition of 50 µL of cold 50% (w/v) TCA (final concentration, 10% TCA) and incubated for 60 min at 4 °C. The supernatant is discarded, and the plates are washed five times with tap water and air dried. Sulforhodamine B (SRB) solution ([…]) at 0.4% (w/v) in 1% acetic acid is added to each well, and plates are incubated for 10 min at room temperature. After staining, unbound dye is removed by washing five times with 1% acetic acid and the plates are air dried. Bound stain is subsequently solubilized with 10 mM trizma base, and the absorbance is read on an automated plate reader at a wavelength of 515 nm. For suspension cells, the methodology is […]
(§10) the same except that the assay is terminated by fixing settled cells at the bottom of the wells by gently adding 50 µl of 80% TCA (final concentration, 16% TCA). Using the seven absorbance measurements [time zero, (Tz), control growth, (C), and test growth in the presence of drug at the five concentration levels (Ti)], the percentage growth is calculated at each of the drug concentrations […]
(§11) Percentage growth inhibition is calculated as: [(Ti Tz)/(C–Tz)] x 100 for concentrations for which Ti>/=Tz and [(Ti-Tz)/Tz] x 100 for concentrations for which Ti < Tz.
(§12) Three dose response parameters are calculated for each experimental agent. Growth […]
(§13) concentration resulting in a 50% reduction in the net protein increase (as measured by SRB staining) in control cells during the drug incubation. The drug concentration resulting in total growth inhibition (TGI) is calculated from Ti = Tz. […]
(§14) reduction in the measured protein at the end of the drug treatment as compared to that at the beginning) indicating a net loss of cells following treatment is calculated from [(Ti–Tz)/Tz] x 100 =
(§15) _50. Values are calculated for each of these three parameters if the level of activity is reached; […]

[2] = test system: SF-268; conditions: SF-268, CNS cancer, 10 μM
Procedure: as §1, §2, §3, §4, §5, §6, §7, §8, §9, §10, §11, §12, §13, §14, §15

[3] = test system: 786-0; conditions: 786-0, Renal cancer, 10 μM
Procedure: as §1, §2, §3, §4, §5, §6, §7, §8, §9, §10, §11, §12, §13, §14, §15

[4] = test system: OVCAR-5; conditions: OVCAR-5, Ovarian cancer, 10 μM
Procedure: as §1, §2, §3, §4, §5, §6, §7, §8, §9, §10, §11, §12, §13, §14, §15

[5] = test system: SK-MEL-5; conditions: SK-MEL-5, Melanoma, 10 μM
Procedure: as §1, §2, §3, §4, §5, §6, §7, §8, §9, §10, §11, §12, §13, §14, §15

[6] = test system: HS 578T; conditions: Breast cancer, 10 μM
Procedure: as §1, §2, §3, §4, §5, §6, §7, §8, §9, §10, §11, §12, §13, §14, §15

[7] = test system: MOLT-4; conditions: MOLT-4, Leukemia, 10 μM
Procedure: as §1, §2, §3, §4, §5, §6, §7, §8, §9, §10, §11, §12, §13, §14, §15

[8] = test system: MDA-MB-435; conditions: MDA-MB-435, Melanoma, 10 μM
Procedure: as §1, §2, §3, §4, §5, §6, §7, §8, §9, §10, §11, §12, §13, §14, §15

[9] = test system: SK-MEL-28; conditions: SK-MEL-28, Melanoma, 10 μM
Procedure: as §1, §2, §3, §4, §5, §6, §7, §8, §9, §10, §11, §12, §13, §14, §15

[10] = test system: M14; conditions: M14, Melanoma, 10 μM
Procedure: as §1, §2, §3, §4, §5, §6, §7, §8, §9, §10, §11, §12, §13, §14, §15

[11] = test system: RXF 393; conditions: RXF 393, Renal cancer, 10 μM
Procedure: as §1, §2, §3, §4, §5, §6, §7, §8, §9, §10, §11, §12, §13, §14, §15

[12] = test system: NCI-H226; conditions: NCI-H226, Non-small cell lung cancer, 10 μM
Procedure: as §1, §2, §3, §4, §5, §6, §7, §8, §9, §10, §11, §12, §13, §14, §15

[13] = test system: MDA-MB-231/ATCC; conditions: Breast cancer, 10 μM
Procedure: as §1, §2, §3, §4, §5, §6, §7, §8, §9, §10, §11, §12, §13, §14, §15

[14] = test system: MCF7; conditions: MCF7, Breast cancer, 10 μM
Procedure: as §1, §2, §3, §4, §5, §6, §7, §8, §9, §10, §11, §12, §13, §14, §15

[15] = test system: KM12; conditions: KM12, Colon cancer, 10 μM
Procedure: as §1, §2, §3, §4, §5, §6, §7, §8, §9, §10, §11, §12, §13, §14, §15

[16] = test system: T-47D; conditions: Breast cancer, 10 μM
Procedure: as §1, §2, §3, §4, §5, §6, §7, §8, §9, §10, §11, §12, §13, §14, §15

[17] = test system: SR; conditions: Leukemia, 10 μM
Procedure: as §1, §2, §3, §4, §5, §6, §7, §8, §9, §10, §11, §12, §13, §14, §15

[18] = test system: HCT-116; conditions: HCT-116, Colon cancer, 10 μM
Procedure: as §1, §2, §3, §4, §5, §6, §7, §8, §9, §10, §11, §12, §13, §14, §15

[19] = test system: SF-539; conditions: SF-539, CNS cancer, 10 μM
Procedure: as §1, §2, §3, §4, §5, §6, §7, §8, §9, §10, §11, §12, §13, §14, §15

[20] = test system: A549/ATCC; conditions: Non-small cell lung cancer, 10 μM
Procedure: as §1, §2, §3, §4, §5, §6, §7, §8, §9, §10, §11, §12, §13, §14, §15

[21] = test system: CCRF-CEM; conditions: Leukemia, 10 μM
Procedure: as §1, §2, §3, §4, §5, §6, §7, §8, §9, §10, §11, §12, §13, §14, §15

[22] = test system: OVCAR-8; conditions: OVCAR-8, Ovarian cancer, 10 μM
Procedure: as §1, §2, §3, §4, §5, §6, §7, §8, §9, §10, §11, §12, §13, §14, §15

Row | Substance | GI% [1] | GI% [2] | GI% [3] | GI% [4] | GI% [5] | GI% [6] | GI% [7] | GI% [8] | GI% [9] | GI% [10] | GI% [11] | GI% [12] [%] | GI% [13] | GI% [14] [%] | GI% [15] | GI% [16] | GI% [17] | GI% [18] | GI% [19] | GI% [20] | other results
1 | 2-(4-((2-(2-(5,6-Dichloro-2-(4-methoxyphenyl)-1H-benzo[d]imidazol-1-yl)acetyl)hydrazono)methyl) -2-methoxyphenoxy)acetic acid [Compound 10m] | – (GI% < 5%) | – (GI% < 5%) | – (GI% < 5%) | – (GI% < 5%) | – (GI% < 5%) | – (GI% < 5%) | – (GI% < 5%) | – (GI% < 5%) | – (GI% < 5%) | – (GI% < 5%) | – (GI% < 5%) | 11.67 | – (GI% < 5%) | 9.09 | – (GI% < 5%) | – (GI% < 5%) | – (GI% < 5%) | – (GI% < 5%) | – (GI% < 5%) | – (GI% < 5%) | GI% [21]: – (GI% < 5%); GI% [22]: – (GI% < 5%)
2 | 2-(5-((2-(2-(5,6-Dichloro-2-(4-methoxyphenyl)-1H-benzo[d]imidazol-1-yl)acetyl)hydrazono)methyl)-2-methoxyphenoxy)acetic acid [Compound 10n] | – (GI% < 5%) | – (GI% < 5%) | – (GI% < 5%) | – (GI% < 5%) | – (GI% < 5%) | 6.21% | 10.12% | – (GI% < 5%) | – (GI% < 5%) | – (GI% < 5%) | – (GI% < 5%) | 10.07 | 11.50% | 14.21 | – (GI% < 5%) | – (GI% < 5%) | 9.65% | 6.00% | – (GI% < 5%) | – (GI% < 5%) | GI% [21]: – (GI% < 5%); GI% [22]: – (GI% < 5%)
